# Key:
# [1] = molecular target: TA from Haliscomenobacter hydrossis (Haliscomenobacter hydrossis); assay: SEC; gel filtration of the purified enzyme; column and buffer not given
# [2] = molecular target: T1, DtolTA (PLP-dependent transaminase of fold type IV) (Desulfobacula toluolica, UniProt K0NPP0); assay: half-reaction (deamination) kinetics, absorbance at […] nm; kmax/KD^app; assay type: biochemical; design: gene dat; (His)6-tagged DtolTA
# T1 sequence (K0NPP0 1-286): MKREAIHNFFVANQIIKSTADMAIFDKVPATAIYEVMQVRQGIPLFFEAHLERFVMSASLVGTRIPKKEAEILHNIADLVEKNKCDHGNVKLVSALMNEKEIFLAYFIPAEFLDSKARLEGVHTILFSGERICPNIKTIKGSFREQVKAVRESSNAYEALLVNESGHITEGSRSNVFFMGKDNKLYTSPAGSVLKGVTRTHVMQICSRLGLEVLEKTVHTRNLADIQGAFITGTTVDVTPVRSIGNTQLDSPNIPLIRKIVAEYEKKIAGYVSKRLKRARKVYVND
# [3] = molecular target: T2, DtolTA (PLP-dependent transaminase of fold type IV) (Desulfobacula toluolica, UniProt K0NPP0, R144I); assay: tyrosine fluorescence quenching titration of apoenzyme; assay type: binding
# T2 construct: gene dat; (His)6-tagged DtolTA variant
# Source text: tyrosine fluorescence quenching titration of apoenzyme on DtolTA (PLP-dependent transaminase of fold type IV) | apparent dissociation constant Kd(PLP) for the R144I holoenzyme were similar to those of WT
# [4] = molecular target: T1, DtolTA (PLP-dependent transaminase of fold type IV); assay: crystal structure (9J0V […] Å; also 9J0U […] Å); tyrosine fluorescence quenching titration of apoenzyme; assay type: binding; design: gene dat; full length, 286 a.a; (His)6-tagged for Kd, tag removed for crystals
# [5] = molecular target: T2, DtolTA (PLP-dependent transaminase of fold type IV); assay: half-reaction (deamination) kinetics, absorbance at […] nm; kmax/KD^app; assay type: biochemical
# [6] = molecular target: T3, DtolTA (PLP-dependent transaminase of fold type IV) (Desulfobacula toluolica, UniProt K0NPP0, K91A); assay: half-reaction kinetics of variant apoenzyme in the presence of PLP; kmax/KD^app at pH […]; assay type: biochemical
# T3 construct: gene dat; (His)6-tagged DtolTA variant
# [7] = molecular target: T1, DtolTA (PLP-dependent transaminase of fold type IV); assay: half-reaction (deamination) kinetics, absorbance at […] nm; kmax/KD^app at pH […]; assay type: biochemical; design: gene dat; (His)6-tagged DtolTA
compound,measurement,setting,value
TA from Haliscomenobacter hydrossis (enzyme),stoichiometry N,[1],2
N[C@H](CCC(=O)O)C(=O)O [D-glutamate],"half-reaction (deamination) kinetics, absorbance at 411 nm; kmax/KD^app",[2],0.020 ± 0.001 M⁻¹ s⁻¹
Cc1ncc(COP(=O)(O)O)c(C=O)c1O [pyridoxal-5′-phosphate],Kd,[3],43 ± 2 µM
same,Kd,[4],30 ± 4 µM
C[C@@H](N)C(=O)O [D-alanine],"half-reaction (deamination) kinetics, absorbance at 411 nm; kmax/KD^app",[5],29 ± 1 M⁻¹ s⁻¹
same,half-reaction kinetics of variant apoenzyme in the presence of PLP; kmax/KD^app,[6],2.4 ± 0.7 M⁻¹ s⁻¹
same,"half-reaction (deamination) kinetics, absorbance at 411 nm; kmax/KD^app at pH 8.",[7],37 ± 1 M^−1s^−1
C[C@@H](N)c1ccccc1 [(R)-1-phenylethylamine],"half-reaction (deamination) kinetics, absorbance at 411 nm; kmax/KD^app",[2],0.015 ± 0.005 M⁻¹ s⁻¹

# Source: article PMC11673721 (Biomolecules, 2024)
